Publication PMC8032764 (Scientific Reports, 2021)

Experiments:
Bradykinin B2 = test system: T1, Bradykinin B2; assay: Cerep binding; parameters: species or system human; settings: 10 μM; [3H]bradykinin; hum. recomb. (CHO)
T1 construct: purchased Eurofins Cerep

Serotonin 5-HT7 = test system: T2, Serotonin 5-HT7; assay: Cerep binding; parameters: species or system human; settings: 10 μM; [3H]LSD; hum. recomb. (CHO)
T2 construct: purchased Eurofins Cerep

Purinergic P2X = assay: Cerep binding; settings: 10 μM; [3H]α,β-MeATP; rat urinary bladder
[1] = test system: Adrenergic α1 (non-selective); assay: Cerep binding; settings: 10 μM; [3H]prazosin; rat cerebral cortex
[2] = test system: Adrenergic α2 (non-selective); assay: Cerep binding; settings: 10 μM; [3H]RX 821002; rat cerebral cortex
male Lister Hooded rats = assay: Diazepam-induced spatial learning impairment in the Morris water maze; format: in vivo, rat
Experimental: The current study used a modified version of the standard acquisition protocol, in which pre-trained rats had to learn to locate a new platform position during six trials on the test day, as described previously. Subjects were semi-randomly divided into treatment groups based on their performance on the last training day. A computer tracking system (HVS Image Ltd, UK) was used to analyse each rat’s swim path on-line.
Latency, pathlength and swim speed (Supplementary Fig. S2) were analysed with a one-factor ANOVA. For the probe trial, to determine whether each treatment group had learned the spatial position of the platform, within-subjects ANOVA was used to compare percent time spent in the platform quadrant with the left, right and opposite quadrants. All significant cases were followed by a post hoc Newman–Keuls test. In addition, a comparison between vehicle treated and diazepam-treated rats on the percent time spent in the platform quadrant was analysed using an unpaired t-test.

[3] = test system: T3, Prostanoid TP (TXA2/PGH2); assay: Cerep binding; parameters: species or system human; settings: 10 μM; [3H]SQ 29548; hum. recomb. (HEK-293)
T3 construct: host or cells: HEK-293

Na+ channel (site 2) = assay: Cerep binding; settings: 10 μM; [3H]batrachotoxinin; rat cerebral cortex
Cholecystokinin CCK2 = test system: T4, Cholecystokinin CCK2; assay: Cerep binding; parameters: species or system human; settings: 10 μM; [125I]CCK-8s; hum. recomb. (CHO)
T4 construct: purchased Eurofins Cerep

[4] = Plasma levels, parallel dose groups of water maze; format: in vivo, rat; settings: 10 mg/kg p.o., 30 min
Experimental: Plasma samples were collected and frozen at − 80 °C for later analysis.
The calibration range was from 1.0 to 5000 ng/mL. After protein precipitation with ethanol, the sample solution was injected onto a Gemini C18 trapping column (2 × 10 mm; Phenomenex, Torrance, CA, USA) and polar endogenous compounds and salts were rinsed off. Analytical separation was performed on an Atlantis T3 column (2.1 × 50 mm) (Waters, Milford, MA, USA), using methanol/water containing 0.1% formic acid as mobile phase. A drug analogue was used as an internal standard.

healthy male subjects = assay: Study BP25129 single-ascending dose, safety EEG; format: in vivo, human
Experimental: CLINICAL INFORMATION: Safety EEG data from Phase I studies in healthy volunteers
1) Study BP25129 Single-Ascending Dose (SAD) in Healthy Volunteers
Single doses of between 1.5 mg and 1250 mg were administered to groups of eight healthy male subjects (age range 18–44 years) per dose level (6 received active drug, two received placebo). All nine planned cohorts in the Part 1 SAD study were completed, and all subjects completed dosing as planned.
Food Effect (FE) Cohort: Eight subjects were enrolled, all received active drug as planned on two separate occasions, with food condition (Fed or Fasted) on each occasion determined in a randomized manner. All subjects enrolled in the FE portion of Part 1 completed the study.
EEG assessments were made in Cohorts 6, 8, 9 and FE Cohort only:
• Cohort 6: 160 mg (n dosed: 6)
• Cohort 8: 660 mg (n dosed: 6)
• Cohort 9: 1250 mg (n dosed: 6)
• Food effect Cohort: 660 mg ([…]) […]
On the day of dosing, an EEG in the resting, awake state was recorded starting about 1 hour prior to dosing and ending approximately 7 h after dosing. EEG results were recorded either as normal, normal variant or abnormal variant. If an abnormal variant measurement was recorded, then the Investigator could continue recordings as appropriate until a return to […]
participants had several EEGs and several participants had sleep assessments with EEG that were also evaluated: […]

[5] = target: T5, human GABAA α2β3γ2 receptors (Homo sapiens, UniProt P18507+P47869); assay: [3H]-flumazenil competition binding, HEK293 membranes; settings: 1 nM [3H]-flumazenil
T5 construct: expressed in transfected cells; host or cells: HEK293-EBNA, transient
Experimental: (§1) HEK293-EBNA cells adapted to grow in suspension were transiently transfected with the plasmids containing the desired GABAA receptor subunit cDNAs at α, β, γ, 1:1:2 ratio using XtremeGENE Q2 (Cat. No. 03045595001, Roche Applied Science, RAS, Rotkreuz, Switzerland) as previously described. GABAA α1β2γ2, α2β3γ2, α3β3γ2, α4β3γ2, α5β3γ2 and α6β3γ2 receptor subtypes were expressed in this system. 48 h post transfection, the cells were harvested and washed three times with cold PBS and frozen at − 80 °C.
(§2) Non-specific binding was determined in the presence of 10 μM diazepam.

[6] = target: T6, human GABAA α3β3γ2 receptors (Homo sapiens, UniProt P18507+P34903); assay: as above; settings: 1 nM [3H]-flumazenil
T6 construct: expressed in transfected cells; host or cells: HEK293-EBNA, transient
Experimental: as §1, §2

Melatonin MT1 (ML1A) = test system: T7, Melatonin MT1 (ML1A); assay: Cerep binding; parameters: species or system human; settings: 10 μM; [125I]2-iodomelatonin; hum. recomb. (CHO)
T7 construct: host or cells: CHO

non-impaired rodents = assay: Cognitive performance in non-impaired rodents; format: in vivo; settings: data not shown
[7] = 3 and 10 mg/kg p.o. + diazepam 6 mg/kg i.p.

## Cc1onc(-c2ccc(F)cc2)c1COc1ccc(C(=O)N2CCS(=O)(=O)CC2)cn1 [basmisanil]
Bradykinin B2
  % Inhibition: 14%
Serotonin 5-HT7
  % Inhibition: 13%
Purinergic P2X
  % Inhibition: -7%
[1]
  % Inhibition: -1%
[2]
  % Inhibition: -8%
Male Lister Hooded rats; 10 mg/kg p.o. + diazepam 6 mg/kg i.p., 30 min before test
  probe trial, percent time spent in the previous platform quadrant: attenuated the diazepam-induced deficit
Male Lister Hooded rats; [7]
  latency and pathlength across six learning trials: did not significantly reduce the diazepam-induced increase in latency and pathlength
  swim speed: no effect on swim speed
[3]
  % Inhibition: 5%
Na+ channel (site 2)
  % Inhibition: 0%
Cholecystokinin CCK2
  % Inhibition: -21%
[4]
  maximal plasma level: 903 ± 13 ng/mL
Healthy male subjects; single doses 1.5 mg to 1250 mg
  tolerability: well tolerated
Healthy male subjects; single doses of 160 mg, 660 mg and 1250 mg
  EEG assessments: did not reveal any findings of clinical
[5]
  Ki: 458 ± 27 nM
[6]
  Ki: 510 ± 21 nM
Melatonin MT1 (ML1A)
  % Inhibition: 14%
non-impaired rodents
  enhancement of cognitive performance: have not shown enhancement of cognitive performance
